From patent US20230234967A1, “Fused Azole Heterocycles as AHR Antagonists” (Senda Biosciences, Inc., priority 2021, published 2023)

What follows are compounds tested against T1, AHR (Homo sapiens, UniProt P35869) (assay: DRE-Luciferase Reporter Assay (HepG2 AhR-Lucia reporter cells)). Conditions: AHR activating ligand at its EC50, luciferase read-out, read-out: HEPG2 Luc IC50.
T1 construct: other cell line with a DRE-luciferase reporter stably transfected; endogenous in cells; host or cells: Human HepG2 liver carcinoma AhR-Lucia reporter cells
T1 sequence (P35869 11-848): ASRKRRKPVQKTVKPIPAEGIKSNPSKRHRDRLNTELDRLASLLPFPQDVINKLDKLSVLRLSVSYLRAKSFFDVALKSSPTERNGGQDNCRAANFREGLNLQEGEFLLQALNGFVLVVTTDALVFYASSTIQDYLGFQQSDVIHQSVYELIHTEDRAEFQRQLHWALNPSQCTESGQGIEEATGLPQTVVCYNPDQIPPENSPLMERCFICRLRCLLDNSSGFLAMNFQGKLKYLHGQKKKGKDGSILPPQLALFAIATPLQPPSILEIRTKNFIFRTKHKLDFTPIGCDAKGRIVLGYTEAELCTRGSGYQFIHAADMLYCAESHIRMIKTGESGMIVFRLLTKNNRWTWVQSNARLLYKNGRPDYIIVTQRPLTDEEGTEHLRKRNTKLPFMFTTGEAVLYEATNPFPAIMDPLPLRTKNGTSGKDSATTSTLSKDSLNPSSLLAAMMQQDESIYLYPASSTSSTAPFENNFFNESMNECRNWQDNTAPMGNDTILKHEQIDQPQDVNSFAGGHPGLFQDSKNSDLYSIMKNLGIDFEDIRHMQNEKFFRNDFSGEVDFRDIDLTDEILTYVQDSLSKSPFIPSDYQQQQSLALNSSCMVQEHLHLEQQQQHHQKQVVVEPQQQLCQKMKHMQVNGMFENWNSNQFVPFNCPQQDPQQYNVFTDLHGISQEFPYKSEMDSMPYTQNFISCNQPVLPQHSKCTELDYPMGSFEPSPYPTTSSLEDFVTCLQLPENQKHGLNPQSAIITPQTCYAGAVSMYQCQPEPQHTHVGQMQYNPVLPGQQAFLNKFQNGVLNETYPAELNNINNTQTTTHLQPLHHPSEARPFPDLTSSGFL
Format: cell-based
Description: Example 27: DRE-Luciferase Reporter Assay
AHR binds to Dioxin Responsive Elements (DRE) upstream of genes that it activates. One measure of AHR activity is activation of a reporter gene, such as luciferase, downstream of one or multiple DRE elements. Luciferase activity will reflect activation and inhibition of AHR in the cells expressing his reporter. 20000 Human HepG2 liver carcinoma—AhR-Lucia reporter cells or Human HT29 colon adenocarcinoma—AhR reporter cells or other cell line with a DRE-luciferase reporter stably transfected were plated in Eagle's Minimal Essential Medium, 10% heat-inactivated FBS, 1×non-essential amino acids Pen-Strep (10,000 U/mL) and Normocin (100 ug/mL) in plates (96-well, 384-well or other plates) and incubated overnight at 37° C. in a CO2 incubator and treated with and without AhR antagonists at a log dilution starting at 100 uM.
After 1 hr that cells were plated an AHR activating ligand, such as TCDD, kynurenine, ITE (2-(1H-indole-3-ylcarbonyl)-4-thiazolecarboxylic methyl ester), VAF347, BNF (beta-naphthoflavone), FICZ (6-formylindolo(3,2-b) carbazole) or other AHR ligands at their specific EC50 concentration, were added to the cells with or without AHR antagonist.
Cells were incubated for 24 or 48 hours or another time point and then, supernatant was analyzed for determination of luciferase activity as a read-out of the AHR activation or inhibition. Luciferase was measured with the commercial kit QUANTI-Luc™ assay solution kit from Invivogen following the manufacturer's instructions.
The level of luciferase with only agonist ligand added was the maximum signal while the luciferase with […] was the minimum signal. IC50 values were determined as the concentration which inhibits half of the luciferase activity. “A” indicates an IC50 value less than 100 nM, “B” indicates an IC50 between 100 and 500 nM, “C” indicates an IC50 above 500 nM.
Work on `Cn1nccc1C(=O)Nc1nc2ccc(-c3ccccc3C(F)(F)F)nc2s1` [Product 1, 1-methyl-N-(5-(2-(trifluoromethyl)phenyl)thiazolo[5,4-b]pyridin-2-yl)-1H-pyrazole-5-carboxamide] yielded an IC50 greater than 500 nM. In the case of `Cc1ccccc1-c1ccc2nc(NC(=O)c3ncnn3C)sc2n1` [Product 2, 1-Methyl-N-(5-(o-tolyl)thiazolo[5,4-b]pyridin-2-yl)-1H-1,2,4-triazole-5-carboxamide], the IC50 is reported as 100 to 500 nM. In the case of `Cn1nccc1C(=O)Nc1nc2ccc(-c3ccccc3C(F)F)nc2s1` [Product 3, N-(5-(2-(difluoromethyl)phenyl)thiazolo[5,4-b]pyridin-2-yl)-1-methyl-1H-pyrazole-5-carboxamide], the IC50 is reported as 100 to 500 nM. Work on `COc1ccccc1-c1ccc2nc(NC(=O)c3ncnn3C)sc2n1` [Product 4, N-(5-(2-methoxyphenyl)thiazolo[5,4-b]pyridin-2-yl)-1-methyl-1H-1,2,4-triazole-5-carboxamide] yielded an IC50 of 100 to 500 nM. In the case of `Cn1nccc1C(=O)Nc1nc2ccc(-c3cc(F)ccc3C(F)F)nc2s1` [Product 5, N-(5-(2-(difluoromethyl)-5-fluorophenyl)thiazolo[5,4-b]pyridin-2-yl)-1-methyl-1H-pyrazole-5-carboxamide], the IC50 is reported as greater than 500 nM. Compound `Cn1ncnc1C(=O)Nc1nc2ccc(-c3ccccc3C(F)(F)F)nc2s1` [Product 6, 1-Methyl-N-(5-(2-(trifluoromethyl)phenyl)thiazolo[5,4-b]pyridin-2-yl)-1H-1,2,4-triazole-5-carboxamide] has an IC50 greater than 500 nM. `Cn1ncnc1C(=O)Nc1nc2ccc(-c3ccccc3C(F)F)nc2s1` [Product 7, N-(5-(2-(difluoromethyl)phenyl)thiazolo[5,4-b]pyridin-2-yl)-1-methyl-1H-1,2,4-triazole-5-carboxamide] showed an IC50 greater than 500 nM. With `Cc1ccccc1-c1ccc2nc(NC(=O)c3cccnc3)sc2n1` [Product 9, N-(5-(o-tolyl)thiazolo[5,4-b]pyridin-2-yl)nicotinamide] the IC50 was greater than 500 nM. `Cc1ccccc1-c1ccc2nc(NC(=O)c3ccncc3)sc2n1` [Product 10, N-(5-(o-tolyl)thiazolo[5,4-b]pyridin-2-yl)isonicotinamide] was tested, and the IC50 was greater than 500 nM. `Cn1ncnc1C(=O)Nc1nc2ccc(-c3cc(F)ccc3C(F)F)nc2s1` [Product 11, N-(5-(2-(difluoromethyl)-5-fluorophenyl)thiazolo[5,4-b]pyridin-2-yl)-1-methyl-1H-1,2,4-triazole-5-carboxamide] gave an IC50 greater than 500 nM. `COc1ccccc1-c1ccc2nc(NC(=O)c3cccnc3)sc2n1` [Product 13, N-(5-(2-methoxyphenyl)thiazolo[5,4-b]pyridin-2-yl)nicotinamide] showed an IC50 of 100 to 500 nM. `COc1ccccc1-c1ccc2nc(NC(=O)c3ccncc3)sc2n1` [Product 14, N-(5-(2-methoxyphenyl)thiazolo[5,4-b]pyridin-2-yl)isonicotinamide] showed an IC50 of less than 100 nM. Compound `COc1cccc(-c2ccc3nc(NC(=O)c4ccnn4C)sc3n2)c1` [Product 16, N-(5-(3-methoxyphenyl)thiazolo[5,4-b]pyridin-2-yl)-1-methyl-1H-pyrazole-5-carboxamide] has an IC50 of 100 to 500 nM. `CN(C)C(=O)c1cccc(-c2ccc3nc(NC(=O)c4ccnn4C)sc3n2)c1` [Product 17, N-(5-(3-(dimethylcarbamoyl)phenyl)thiazolo[5,4-b]pyridin-2-yl)-1-methyl-1H-pyrazole-5-carboxamide] showed an IC50 greater than 500 nM. For `CN(C)c1cccc(-c2ccc3nc(NC(=O)c4ccnn4C)sc3n2)c1` [Product 19, N-(5-(3-(dimethylamino)phenyl)thiazolo[5,4-b]pyridin-2-yl)-1-methyl-1H-pyrazole-5-carboxamide], the IC50 was greater than 500 nM. In the case of `CN(C)c1ccc(-c2ccc3nc(NC(=O)c4ccnn4C)sc3n2)cc1` [Product 20, N-(5-(4-(dimethylamino)phenyl)thiazolo[5,4-b]pyridin-2-yl)-1-methyl-1H-pyrazole-5-carboxamide], the IC50 is reported as less than 100 nM. With `Cn1nccc1C(=O)Nc1nc2ccc(-c3ccccc3N3CCCC3)nc2s1` [Product 21, 1-Methyl-N-(5-(2-(pyrrolidin-1-yl)phenyl)thiazolo[5,4-b]pyridin-2-yl)-1H-pyrazole-5-carboxamide] the IC50 was greater than 500 nM. Work on `Cn1cc(-c2ccc3nc(NC(=O)c4ccnn4C)sc3n2)cn1` [Product 22, 1-Methyl-N-(5-(1-methyl-1H-pyrazol-4-yl)thiazolo[5,4-b]pyridin-2-yl)-1H-pyrazole-5-carboxamide] yielded an IC50 of 100 to 500 nM. `CC(=O)Nc1nc2ccc(-c3ccccc3N(C)C)nc2s1` [Product 23, N-(5-(2-(dimethylamino)phenyl)thiazolo[5,4-b]pyridin-2-yl)acetamide] gave an IC50 greater than 500 nM. Compound `Cn1nccc1C(=O)Nc1nc2ccc(-c3ccccc3O)nc2s1` [Product 24, N-(5-(2-hydroxyphenyl)thiazolo[5,4-b]pyridin-2-yl)-1-methyl-1H-pyrazole-5-carboxamide] has an IC50 greater than 500 nM. Compound `Cn1nccc1C(=O)Nc1nc2ccc(-c3cccnc3)nc2s1` [Product 26, 1-Methyl-N-(5-(pyridin-3-yl)thiazolo[5,4-b]pyridin-2-yl)-1H-pyrazole-5-carboxamide] has an IC50 of 100 to 500 nM. Compound `Cn1nccc1C(=O)Nc1nc2ccc(-c3ccccn3)nc2s1` [Product 27, 1-methyl-N-(5-(pyridin-2-yl)thiazolo[5,4-b]pyridin-2-yl)-1H-pyrazole-5-carboxamide] has an IC50 of 100 to 500 nM. `Cn1nccc1C(=O)Nc1nc2ccc(-c3nccs3)nc2s1` [Product 28, 1-Methyl-N-(5-(thiazol-2-yl)thiazolo[5,4-b]pyridin-2-yl)-1H-pyrazole-5-carboxamide] showed an IC50 greater than 500 nM. In the case of `Cc1nc(-c2ccc3nc(NC(=O)c4ccnn4C)sc3n2)sc1C` [Product 29, N-(5-(4,5-dimethylthiazol-2-yl)thiazolo[5,4-b]pyridin-2-yl)-1-methyl-1H-pyrazole-5-carboxamide], the IC50 is reported as 100 to 500 nM. `Cc1cnc(-c2ccc3nc(NC(=O)c4ccnn4C)sc3n2)s1` [Product 30, 1-Methyl-N-(5-(5-methylthiazol-2-yl)thiazolo[5,4-b]pyridin-2-yl)-1H-pyrazole-5-carboxamide] was tested, and the IC50 was 100 to 500 nM. For `Cc1ncsc1-c1ccc2nc(NC(=O)c3ccnn3C)sc2n1` [Product 31, 1-Methyl-N-(5-(4-methylthiazol-5-yl)thiazolo[5,4-b]pyridin-2-yl)-1H-pyrazole-5-carboxamide], the IC50 was 100 to 500 nM. With `Cc1csc(-c2ccc3nc(NC(=O)c4ccnn4C)sc3n2)n1` [Product 32, 1-Methyl-N-(5-(4-methylthiazol-2-yl)thiazolo[5,4-b]pyridin-2-yl)-1H-pyrazole-5-carboxamide] the IC50 was greater than 500 nM. With `Cc1nc(C)c(-c2ccc3nc(NC(=O)c4ccnn4C)sc3n2)s1` [Product 33, N-(5-(2,4-dimethylthiazol-5-yl)thiazolo[5,4-b]pyridin-2-yl)-1-methyl-1H-pyrazole-5-carboxamide] the IC50 was 100 to 500 nM. For `CC(C)C(=O)Nc1ccccc1-c1ccc2nc(NC(=O)c3ccnn3C)sc2n1` [Product 34, N-(5-(2-isobutyramidophenyl)thiazolo[5,4-b]pyridin-2-yl)-1-methyl-1H-pyrazole-5-carboxamide], the IC50 was greater than 500 nM. In the case of `CC(=O)Nc1ccccc1-c1ccc2nc(NC(=O)c3ccnn3C)sc2n1` [Product 35, N-(5-(2-acetamidophenyl)thiazolo[5,4-b]pyridin-2-yl)-1-methyl-1H-pyrazole-5-carboxamide], the IC50 is reported as greater than 500 nM. `CC(=O)N(C)c1ccccc1-c1ccc2nc(NC(=O)c3ccnn3C)sc2n1` [Product 36, 1-methyl-N-(5-(2-(N-methylacetamido)phenyl)thiazolo[5,4-b]pyridin-2-yl)-1H-pyrazole-5-carboxamide] was tested, and the IC50 was greater than 500 nM.
